Experimental data taken from patent US6121296A, “Transition-state inhibitors for nucleoside hydrolase and transferase reactions” (Albert Einstein College of Medicine of Yeshiva University, priority 1998, dated 2000).
“Also recorded” adds a separate entry of the source. Where two headings read alike, the source gives them in different places.

Legend:
[1] = biological target: T1, IU-nucleoside hydrolase (Crithidia fasciculata, UniProt Q27546, P2A); experiment: biochemical; type: biochemical, C. fasciculata; settings: for Ki: KI IU-nucleoside hydrolase, Table V
T1 construct: contained the coding region for the enzyme; made in house; host or cells: E. coli BL21 (DE3)pLysS, pET3d plasmid
Description: Enzymes. Inosine-uridine nucleoside hydrolase (IU-nucleoside hydrolase) was purified from extracts of E. coli strain BL21 (DE3)pLysS which contained the coding region for the enzyme isolated from C. fasciculata in a pET3d expression plasmid. The DNA coding for the enzyme was placed in the NcoI-BamHI site. This construct gives a Pro2Ala substitution which has no significant effect on the kinetic properties of the purified enzyme. The overexpressed enzyme was purified to apparent homogeneity as previously described (Gopaul, et al. (1996) Biochemistry 35, 5963-5970).
(§1) Enzyme Assays. Initial rate measurements were accomplished at 30° C. in reaction mixtures containing 50 mM potassium phosphate, pH 7.5, or 50 mM Hepes, pH 8.0, and nitrophenylribose or inosine as substrates (Mazella, et al. (1996) J. Am. Chem. Soc. 118, 2111-2112). At pH 7.5 the product p-nitrophenylate anion is present at a concentration which gives a millimolar extinction coefficient of 9.3 cm^-1 at 400 nm. Reaction mixtures with nitrophenylribose as substrate were initiated by the addition of enzyme, and product formation was monitored by continuous recording at 400 nm. With inosine as substrate, the conversion to hypoxanthine was monitored continuously at 280 nm (Parkin, et al. (1991) J. Biol. Chem. 266, 20658-20665). […] The remainder of the inhibitors were analyzed at one fixed substrate concentration and variable inhibitor concentrations. Inhibition constants for IAG-nucleoside hydrolase were established from full kinetic analysis with V and X as inhibitors. […] The remainder of the inhibition constants were characterized by titration of assay mixtures containing a fixed concentration of substrate with variable inhibitor concentrations. […] For Ki determination at a fixed substrate concentration, this approach assumes that substrate and inhibitor compete for the catalytic site.
Inhibitors. Iminoribitol inhibitor were synthesized and purified according to the methods of Furneaux, et al. (Tetrahedron (1997) in press), characterized by NMR, dissolved in H2 O and stored at -20° C. The compounds are enzymatically and chemically stable in H2 O and under conditions of the assay. IU-Nucleoside hydrolase is susceptible to slow-onset tight-binding inhibition under certain conditions (Horenstein & Schramm, (1993b) Biochemistry 32, 9917-9925, Boutellier, et al. (1994) Biochemistry, 33, 3994-4000). However, in the initial reaction rate conditions described here, only the rapidly reversible competition between substrate and inhibitor is being observed. Thus, the reported kinetic constants are dissociation constants which exclude slow-onset binding.

[2] = biological target: IAG-nucleoside hydrolase (Trypanosoma brucei, UniProt Q57ZL6); experiment: Inhibition of IAG-nucleoside hydrolase, initial rates; settings: for inhibition at highest concentration tested: 80, 120, 120 and 160 μM II, III, IV and VI respectively, 75 μM inosine
Procedure: The enzyme was purified to apparent homogeneity as determined by denaturing polyacrylamide gel electrophoresis (Parkin, (1996) J. Biol. Chem. 271, 21713-21719). Some of the studies used the T. brucei brucei enzyme which was overexpressed in E. coli.
as §1, with “concentrations.” for “concentrations. Inhibition constants for IAG-nucleoside hydrolase were established from full kinetic analysis with V and X as inhibitors.”
Inhibitors. Iminoribitol inhibitor were synthesized and purified according to the methods of Furneaux, et al. (Tetrahedron (1997) in press), characterized by NMR, dissolved in H2 O and stored at -20° C.

[3] = biological target: T2, nucleoside hydrolase (Crithidia fasciculata, UniProt Q27546); experiment: Nucleoside hydrolase purified from C. fasciculata: substrate kinetics and inhibition (Table III); type: biochemical; settings: for Vmax /Km / Km / Vmax: compound as substrate; for Substrate or inhibitor concentration (substrate activity limit; nucleoside concentration in parentheses): Table III lower part; for inhibition pattern: vs inosine; for Km / Vmax: Table III
T2 construct: nucleoside hydrolase was purified from C. fasciculata as described above; endogenous in cells; host or cells: Crithidia fasciculata cells grown in a 300-liter fermenter
T2 sequence (Q27546 1-315): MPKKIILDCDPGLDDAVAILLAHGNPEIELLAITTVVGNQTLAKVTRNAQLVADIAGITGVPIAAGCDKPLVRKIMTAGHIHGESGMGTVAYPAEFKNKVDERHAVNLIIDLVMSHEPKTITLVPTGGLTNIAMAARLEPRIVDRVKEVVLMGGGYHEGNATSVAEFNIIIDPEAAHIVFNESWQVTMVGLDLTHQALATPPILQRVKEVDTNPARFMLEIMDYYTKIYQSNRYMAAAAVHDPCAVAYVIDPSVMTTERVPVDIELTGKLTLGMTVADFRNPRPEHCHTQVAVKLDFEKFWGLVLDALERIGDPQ
Procedure: The assay volumes were […]. The reaction was terminated by the addition of […] of 1.0 M HCl. […] The color was developed at 95° C. for 8 minutes and the optical absorbance measured at 450 nm. Enzymatic activity was expressed as millimoles of reducing sugar formed per minute per milligram of protein. During the initial stages of purification a modified assay which removes excess protein was used. Protein solutions of 1-5 ml were added to 100 ml of the assay mixture and incubated for the desired time. The assay was terminated by the addition of […] of 0.1 M ZnSO4. Excess Zn^2+ was removed by the addition of […] of 0.1 M NaOH. After centrifugation, 250 ml of supernatant was removed and assayed for reducing sugar. […] Arsenate readily replaces phosphate in the reaction and the product ribose 1-arsenate rapidly hydrolazes to release ribose which is detected in the reducing sugar assay.
At other pH values, a mixed buffer system was used which contained 30 mM each of acetate. Mes, Pipes, Hepes, Bicine, and Ches were adjusted to the desired pH with HCl or NaOH. The reaction was initiated with a small volume of enzyme and the increase in absorbance recorded at 280 nm.
Assay mixtures of 19 ml contained the desired concentration of inosine and inhibitor(s) together with approximately 3×10^4 cpm of radioactive inosine in 50 mM Hepes or triethanolamine buffer, pH 7.3. […] Samples of […] were removed at the appropriate intervals and spotted on polyethyleneimine cellulose thin layer plates which had been previously spotted with 4 ml of a solution containing 2.2 mM each of inosine and hypoxanthine.
Reaction mixtures were incubated for 5-27 hours and samples analyzed on a 7.8 mm×30 cm C18 -HPLC column eluted with 5 or 10% methanol in H2 O, 4 ml/minute. Samples were detected by the absorbance at 257 nm. Substrate activity with deoxyinosine was also measured at 500 MHz by NMR. […] Proton NMR spectra were collected in sets of eight scans over 15 minutes at room temperature.
Apparent inhibition constants (Ki(app)) were determined from the relationship shown in the following equation:
Vo /Vi +(inosine±Km (1+I/Ki(app))/(inosine+Km)
where Vo and Vi are the initial reaction rates without and with inhibitor, respectively. Km is the Michaelis constant for inosine, I is inhibitor concentration and Ki(app) is the apparent dissociation constant for inhibitor. In cases where the inhibitor is competitive with respect to substrate, Ki(app) is the dissociation constant for the enzyme-inhibitor complex.

[4] = apparent constant, single inosine concentration near Km, three inhibitor concentrations, read-out: Ki(app)

T1 sequence (Q27546 whole entry P2A): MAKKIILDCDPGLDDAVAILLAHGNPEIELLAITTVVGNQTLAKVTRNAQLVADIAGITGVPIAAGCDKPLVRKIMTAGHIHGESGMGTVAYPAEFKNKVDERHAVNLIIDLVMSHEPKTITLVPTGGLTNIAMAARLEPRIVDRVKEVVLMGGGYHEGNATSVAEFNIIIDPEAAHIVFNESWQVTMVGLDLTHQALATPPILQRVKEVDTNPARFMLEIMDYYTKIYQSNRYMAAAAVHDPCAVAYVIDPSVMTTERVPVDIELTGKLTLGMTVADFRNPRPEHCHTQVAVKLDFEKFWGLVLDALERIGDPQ
Chain of IAG-nucleoside hydrolase (Q57ZL6 entry or part of it): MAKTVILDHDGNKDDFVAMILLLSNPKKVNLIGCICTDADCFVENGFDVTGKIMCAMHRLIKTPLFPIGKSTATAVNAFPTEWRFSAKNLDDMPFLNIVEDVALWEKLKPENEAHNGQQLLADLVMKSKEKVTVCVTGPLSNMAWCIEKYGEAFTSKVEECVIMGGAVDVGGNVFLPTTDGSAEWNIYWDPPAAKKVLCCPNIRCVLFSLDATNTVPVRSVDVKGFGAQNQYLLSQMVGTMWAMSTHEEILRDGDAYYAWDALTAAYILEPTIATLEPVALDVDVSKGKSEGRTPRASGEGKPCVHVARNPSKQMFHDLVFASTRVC

`O=C(O)c1ccc([C@@H]2N[C@H](CO)[C@@H](O)[C@H]2O)cc1` [VI] was tested, and the Ki [1] was 96 ± 7 nM, the Ki [2] was over 480 µM and the “Km /KI IAG-nucleoside hydrolase” value [2] was under 0.04. For the same molecule, the “inhibition at highest concentration tested” value [2] was “NO inhibition was observed”.
In the case of `OC[C@H]1O[C@@H](n2cnc3cncnc32)[C@H](O)[C@@H]1O` [Purine riboside], the “substrate activity” value [3] is reported as “poor substrate” and the “Vmax /Km” value [3] is reported as 1.5×10^2 M^-1 S^-1.
For `C[C@H]1O[C@@H](n2cnc3c(N)ncnc32)[C@H](O)[C@@H]1O` [5d-adenosine, 5'-Deoxyadenosine], the “substrate activity” value [3] was “Low rates of product formation”.
With `Cc1cn([C@H]2C[C@H](O)[C@@H](CO)O2)c(=O)[nH]c1=O` [Thymidine] the Ki [3] was 7.8 mM, the “substrate activity” value [3] was “no activity being detected” and the “Substrate or inhibitor concentration (substrate activity limit; nucleoside concentration in parentheses)” value [3] was under 0.0008. For the same molecule, the “apparent Vmax difference, 5-methyluridine vs thymidine” value ([3]; effect of the 2'-hydroxyl) was > 10^5.
`O=[N+]([O-])c1ccc(O[C@@H]2O[C@H](CO)[C@@H](O)[C@H]2O)cc1` [nitrophenylribose, reference compound] was tested, and the Km ([1]; compound as substrate) was 64 ± 6 µM.
With `O=c1[nH]cnc2nc[nH]c12` [Hypoxanthine] the Ki [3] was 6.2 ± 0.9 mM and the inhibition pattern [3] was “slope-linear, competitive patterns”.
With `OC[C@H]1N[C@@H](c2ccc(O)cc2)[C@H](O)[C@@H]1O` [VII] the Ki [1] was 75 ± 4 nM, the Ki [2] was 35 ± 2 µM and the “Km /KI IAG-nucleoside hydrolase” value [2] was 0.51.
For `Nc1ncnc2c1ncn2[C@@H]1O[C@H](CO)C[C@H]1O` [3'-d-Adenosine], the Ki [3] was 7.29 mM and the “Substrate or inhibitor concentration (substrate activity limit; nucleoside concentration in parentheses)” value [3] was under 0.16.
`OC[C@H]1N[C@@H](c2ccc(F)cc2)[C@H](O)[C@@H]1O` [VIII] was tested, and the Ki [1] was 57 ± 5 nM, the inhibition pattern ([1]; minimum of four substrate and three inhibitor concentrations) was “slope-linear competitive inhibitors” and the Ki [2] was 205 ± 14 µM. For the same molecule, the “Km /KI IAG-nucleoside hydrolase” value [2] was 0.088.
`Nc1ncnc2c1ncn2C1CC(O)C(CO)O1` (stereo not drawn) [d-Adenosine] was tested, and the “Substrate or inhibitor concentration (substrate activity limit; nucleoside concentration in parentheses)” value [3] was under 0.0006 and the Ki [3, 4] was 3.2 mM.
For `OC[C@H]1O[C@@H](n2cnc3c(O)ncnc32)[C@H](O)[C@@H]1O` [Inosine], the “Vmax /Km for inosine relative to adenosine” value [3] was 7.8 times, the Km [3] was 0.38 ± 0.03 mM and the Vmax [3] was 50 ± 2 µmol/min/mg. The “Vmax /Km” value [3] was 7.6×10^-4 M^-1 S^-1.
For `O=[N+]([O-])c1ccc([C@@H]2N[C@H](CO)[C@@H](O)[C@H]2O)cc1` [IV], the Ki [1] was 1100 ± 100 nM, the Ki [2] was over 360 µM and the “Km /KI IAG-nucleoside hydrolase” value [2] was under 0.05. For the same molecule, the “inhibition at highest concentration tested” value [2] was “NO inhibition was observed”.
In the case of `C[C@H]1O[C@@H](n2cnc3c(=O)[nH]cnc32)[C@H](O)[C@@H]1O` [5d-inosine], the “substrate activity” value [3] is reported as “Low rates of product formation”.
For `Nc1ncnc2c1ncn2[C@@H]1O[C@H](COP(=O)(O)O)[C@@H](O)[C@H]1O` [AMP], the Ki [3] was 44 mM and the “Substrate or inhibitor concentration (substrate activity limit; nucleoside concentration in parentheses)” value [3] was under 0.01.
With `O=c1[nH]cnc2c([C@@H]3O[C@H](CO)[C@@H](O)[C@H]3O)n[nH]c12` [Formycin B] the Ki [3] was 1.96 mM and the “Substrate or inhibitor concentration (substrate activity limit; nucleoside concentration in parentheses)” value [3] was under 0.02.
In the case of Cytosine, the Km [3] is reported as 4.7 mM, the Vmax [3] is reported as 36 ± 3 µmol/min/mg and the “Vmax /Km” value [3] is reported as 4.5 × 10^3 M^-1 S^-1.
`CSC[C@H]1O[C@@H](n2cnc3c(N)ncnc32)[C@H](O)[C@@H]1O` [5'-Methylthioadenosine] was tested, and the Ki [3] was 5.7 mM and the “Substrate or inhibitor concentration (substrate activity limit; nucleoside concentration in parentheses)” value [3] was under 0.0003.
In the case of `O=[N+]([O-])c1cccc([C@@H]2N[C@H](CO)[C@@H](O)[C@H]2O)c1` [III], the Ki [1] is reported as 7500 ± 500 nM, the Ki [2] is reported as over 360 µM and the “Km /KI IAG-nucleoside hydrolase” value [2] is reported as under 0.05. The “inhibition at highest concentration tested” value [2] was “NO inhibition was observed”.
For `Nc1cccc([C@@H]2N[C@H](CO)[C@@H](O)[C@H]2O)c1` [IX], the Ki [1] was 51 ± 4 nM, the Ki [2] was 38 ± 4 µM and the “Km /KI IAG-nucleoside hydrolase” value [2] was 0.47.
For `Nc1ncnc2c1ccn2[C@@H]1O[C@H](CO)[C@@H](O)[C@H]1O` [7-Deazaadenosine, 7-deazaadenosine], the Ki [3] was 2.3 mM, the “rate of hydrolysis relative to the rate with inosine (detection level)” value [3] was < 3×10^-4 and the “Substrate or inhibitor concentration (substrate activity limit; nucleoside concentration in parentheses)” value [3] was under 0.0008. For the same molecule, the “substrate activity” value ([3]; listed as tubercidin) was “not a substrate; also recorded: lack of substrate activity” and the inhibition pattern [3] was “competitive inhibitor”.
For `O=c1[nH]cnc2c1ncn2[C@H]1C[C@H](O)[C@@H](CO)O1` [d-Inosine], the “Substrate or inhibitor concentration (substrate activity limit; nucleoside concentration in parentheses)” value [3] was under 0.0003 and the Ki [3, 4] was 2.3 mM.
`O=C[C@H](O)[C@H](O)[C@H](O)CO` [Ribose] was tested, and the Ki [3] was 0.7 ± 0.1 mM and the inhibition pattern [3] was “slope-linear, competitive patterns”.
